According to patent US8946282B2, “Indolin-2-one derivatives as protein kinase inhibitors” (Annji Pharmaceutical Co., Ltd., priority 2012, dated 2015):

Key:
aurora B = aurora B (Homo sapiens, UniProt Q96GD4); experiment: radioisotope-based P81 filter-binding assay, aurora B kinase; assay type: biochemical; settings: averaged from two independent dose-response curves; read-out: Enzyme assay IC50 Aur B
Description: (§1) Compounds of formula (I)-(IV) were evaluated for abilities in inhibiting protein kinases aurora B and FLT-3 activity using radioisotope-based P81 filter-binding assay (Table 1).

FLT-3 = biological target: T1, FLT-3 (Homo sapiens, UniProt P36888); experiment: radioisotope-based P81 filter-binding assay, FLT-3 kinase; assay type: biochemical; settings: averaged from two independent dose-response curves; read-out: Enzyme assay IC50 FLT-3
T1 sequence (P36888 27-993): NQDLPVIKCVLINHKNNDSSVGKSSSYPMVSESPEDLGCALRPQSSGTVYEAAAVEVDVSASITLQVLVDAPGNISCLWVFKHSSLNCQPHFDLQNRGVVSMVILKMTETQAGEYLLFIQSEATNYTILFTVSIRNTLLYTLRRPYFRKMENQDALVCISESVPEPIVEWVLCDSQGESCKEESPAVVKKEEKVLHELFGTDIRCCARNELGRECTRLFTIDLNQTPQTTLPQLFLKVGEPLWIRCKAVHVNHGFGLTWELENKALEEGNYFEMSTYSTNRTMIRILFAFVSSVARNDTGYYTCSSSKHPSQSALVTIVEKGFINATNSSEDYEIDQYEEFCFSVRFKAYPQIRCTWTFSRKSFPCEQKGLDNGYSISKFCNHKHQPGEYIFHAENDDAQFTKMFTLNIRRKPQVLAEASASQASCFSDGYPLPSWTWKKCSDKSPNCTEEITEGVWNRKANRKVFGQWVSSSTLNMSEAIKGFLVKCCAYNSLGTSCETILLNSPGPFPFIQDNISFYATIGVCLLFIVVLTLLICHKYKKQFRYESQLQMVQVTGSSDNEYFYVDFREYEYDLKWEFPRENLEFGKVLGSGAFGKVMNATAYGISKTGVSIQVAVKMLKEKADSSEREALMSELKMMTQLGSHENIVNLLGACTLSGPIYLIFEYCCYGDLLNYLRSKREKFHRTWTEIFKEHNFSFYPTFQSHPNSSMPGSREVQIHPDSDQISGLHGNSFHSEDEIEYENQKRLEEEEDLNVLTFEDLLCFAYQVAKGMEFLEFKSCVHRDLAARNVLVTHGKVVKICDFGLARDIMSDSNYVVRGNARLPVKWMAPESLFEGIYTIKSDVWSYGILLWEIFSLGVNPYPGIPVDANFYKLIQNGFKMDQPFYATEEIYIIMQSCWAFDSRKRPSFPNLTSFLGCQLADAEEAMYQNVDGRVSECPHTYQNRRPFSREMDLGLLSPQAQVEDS
Description: as §1

[1] = test system: HepG2 human hepatocellular carcinoma cells; experiment: anti-proliferation, SRB colorimetric assay, HepG2; assay type: cell-based; settings: concentration required for 50% growth inhibition, read-out: IC50 (μM, mean ± S.D.)
Excerpt: HCT116 human colorectal carcinoma cells (Table 3), HepG2 human hepatocellular carcinoma cells (Table 4), and MV4-11 human acute myelomonocytic leukemia cells (Table 5).

[2] = test system: MV4-11 human acute myelomonocytic leukemia cells; experiment: anti-proliferation, SRB colorimetric assay, MV4-11; assay type: cell-based; settings: concentration required for 50% growth inhibition
Description: HCT116 human colorectal carcinoma cells (Table 3), HepG2 human hepatocellular carcinoma cells (Table 4), and MV4-11 human acute myelomonocytic leukemia cells (Table 5). Cells were treated with the test compound and the concentration required for 50% growth inhibition (IC50) determined by sulfomodamine B (SRB) colorimetric assay.

aurora B, sequence (Q96GD4 whole entry): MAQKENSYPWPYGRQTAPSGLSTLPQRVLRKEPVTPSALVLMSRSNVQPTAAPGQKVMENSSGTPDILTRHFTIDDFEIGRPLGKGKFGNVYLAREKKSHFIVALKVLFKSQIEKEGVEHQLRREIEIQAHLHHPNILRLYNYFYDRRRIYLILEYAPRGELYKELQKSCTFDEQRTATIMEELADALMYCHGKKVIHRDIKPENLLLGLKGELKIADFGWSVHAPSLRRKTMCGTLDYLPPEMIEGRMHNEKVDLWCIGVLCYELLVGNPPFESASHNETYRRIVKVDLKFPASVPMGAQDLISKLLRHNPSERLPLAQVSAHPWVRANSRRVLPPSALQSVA

| Compound | IC50 (aurora B) | IC50 (FLT-3) | IC50 [1] | melting point | IC50 [2] |
| --- | --- | --- | --- | --- | --- |
| Cc1[nH]c(/C=C2\C(=O)Nc3cc(NC(=O)NC(=O)c4ccc(Cl)c(C(F)(F)F)c4)ccc32)c(C)c1CCC(=O)O [D37, (Z)-3-(5-((6-(3-(4-chloro-3-(trifluoromethyl)benzoyl)ureido)-2-oxo-indolin-3-ylidene)methyl)-2,4-dimethyl-1H-pyrrol-3-yl)propanoic acid] | 1.6 nM | 2.4 nM | 0.09 ± 0.04 µM |  |  |
| Cc1ccc(C(=O)NC(=O)Nc2ccc3c(c2)NC(=O)/C3=C\c2ccc[nH]2)cc1 [D29, (Z)—N-(3-((1H-pyrrol-2-yl)methylene)-2-oxoindolin-6-ylcarbamoyl)-4-methylbenzamide] | 18.4 nM | > 1000 nM | 0.93 ± 0.01 µM | 290 to 295 °C (dec.) |  |
| Cc1[nH]c(/C=C2\C(=O)Nc3cc(NC(=O)c4c[nH]cc(-c5ccc(F)cc5)c4=O)ccc32)c(C)c1CCC(=O)O [D145, (Z)-3-(5-((6-(5-(4-fluorophenyl)-4-oxo-1,4-dihydropyridine-3-carboxamido)-2-oxoindolin-3-ylidene)methyl)-2,4-dimethyl-1H-pyrrol-3-yl)propanoic acid] | 3.4 nM | 1.6 nM |  | > 300 °C | 9.45 nM |
| Cc1[nH]c(/C=C2\C(=O)Nc3cc(NC(=O)c4c[nH]cc(-c5ccc(F)cc5)c4=O)ccc32)c(C)c1C(=O)O [D141, (Z)-5-((6-(5-(4-fluorophenyl)-4-oxo-1,4-dihydropyridine-3-carboxamido)-2-oxoindolin-3-ylidene)methyl)-2,4-dimethyl-1H-pyrrole-3-carboxylic acid] | 3.5 nM | 2.9 nM |  | 283 °C | 0.81 nM |
| Cc1cc(C)c(/C=C2\C(=O)Nc3cc(NC(=O)c4cccn(-c5ccc(F)cc5)c4=O)ccc32)[nH]1 [D119, (Z)—N-(3-((3,5-dimethyl-1H-pyrrol-2-yl)methylene)-2-oxoindolin-6-yl)-1-(4-fluorophenyl)-2-oxo-1,2-dihydropyridine-3-carboxamide] | > 1000 nM | 8.1 nM |  | > 300 °C | 1.39 nM |
| Cc1[nH]c(/C=C2\C(=O)Nc3cc(NC(=O)NC(=O)c4ccc(Cl)cc4)ccc32)c(C)c1C(=O)O [D33, (Z)-5-((6-(3-(4-chlorabenzoyl)ureido)-2-oxoindolin-3-ylidene)-methyl)-2,4-dimethyl-1H-pyrrole-3-carboxylic acid] | 3.1 nM | 506 nM | 0.65 ± 0.05 µM | > 300 °C |  |
| O=C1Nc2cc(NC(=O)c3c[nH]cc(-c4ccc(F)cc4)c3=O)c(F)cc2/C1=C/c1ccc[nH]1 [D137, (Z)—N-(3-((1H-pyrrol-2-yl)methylene)-5-fluoro-2-oxoindolin-6-yl)-5-(4-fluorophenyl)-4-oxo-1,4-dihydropyridine-3-carboxamide] | 237 nM | 37.9 nM |  | > 300 °C | 0.97 nM |
| CN(C)c1ccc(C(=O)NC(=O)Nc2ccc3c(c2)NC(=O)/C3=C\c2ccc[nH]2)cc1 [D31, (Z)—N-(3-((1H-pyrrol-2-yl)methylene)-2-oxoindolin-6-ylcarbamoyl)-4-(dimethylamino)benzamide] | 159 nM | 134 nM | 0.63 ± 0.02 µM | 285 to 290 °C (dec.) |  |
| O=C1Nc2cc(NC(=O)c3cccn(-c4ccc(Cl)cc4)c3=O)ccc2/C1=C/c1ccc[nH]1 [D108] | > 1000 nM | 26.3 nM |  | > 300 °C | 0.88 nM |
| Cc1ccc(-n2cccc(C(=O)Nc3ccc4c(c3)NC(=O)/C4=C\c3ccc[nH]3)c2=O)cc1 [D111, (Z)—N-(3-((1H-pyrrol-2-yl)methylene)-2-oxoindolin-6-yl)-2-oxo-1-p-tolyl-1,2-dihydropyridine-3-carboxamide] | 209 nM | 37.5 nM |  | > 300 °C | 3.42 nM |
| COc1ccc(-c2c[nH]cc(C(=O)Nc3ccc4c(c3)NC(=O)/C4=C\c3[nH]c(C)c(C(=O)NCCN4CCCC4)c3C)c2=O)cc1 [D156, (Z)—N-(3-((3,5-dimethyl-4-((2-(pyrrolidin-1-yl)ethyl)carbamoyl)-1H-pyrrol-2-yl)methylene)-2-oxoindolin-6-yl)-5-(4-methoxyphenyl)-4-oxo-1,4-dihydropyridine-3-carboxamide] | 19.2 nM | 11.6 nM |  | > 300 °C | 2.57 nM |
| O=C(NC(=O)c1ccccc1)Nc1ccc2c(c1)NC(=O)/C2=C\c1ccc[nH]1 [D24, (Z)—N-(3-((1H-pyrrol-2-yl)methylene)-2-oxoindolin-6-ylcarbamoyl)benzamide] | 5.3 nM | > 10000 nM | 0.89 ± 0.03 µM | 290 to 295 °C (dec.) |  |
| Cc1[nH]c(/C=C2\C(=O)Nc3cc(NC(=O)c4cccn(-c5ccc(F)cc5)c4=O)ccc32)c(C)c1CC(=O)O [D121, (Z)-2-(5-((6-(1-(4-fluorophenyl)-2-oxo-1,2-dihydropyridine-3-carboxamido)-2-oxoindolin-3-ylidene)methyl)-2,4-dimethyl-1H-pyrrol-3-yl)acetic acid] | 5 nM | 7.3 nM |  | 275 °C (dec.) | 3.03 nM |
| COc1cc(OC)cc(C(=O)NC(=O)Nc2ccc3c(c2)NC(=O)/C3=C\c2ccc[nH]2)c1 [D30] | 29.8 nM |  | 0.86 ± 0.02 µM | 276 to 281 °C (dec.) |  |
| O=C1Nc2cc(NC(=O)c3cccn(-c4ccc(C(F)(F)F)cc4)c3=O)ccc2/C1=C/c1ccc[nH]1 [D112] | > 1000 nM | 137 nM |  | > 300 °C | 2.09 nM |
| O=C1Nc2cc(NC(=O)c3cccn(-c4ccccc4)c3=O)ccc2/C1=C/c1ccc[nH]1 [D105, (Z)—N-(3-((1H-pyrrol-2-yl)methylene)-2-oxoindolin-6-yl)-2-oxo-1-phenyl-1,2-dihydropyridine-3-carboxamide] | 87.4 nM | 48.4 nM |  | > 300 °C | 0.13 nM |
| COC(=O)CCc1c(C)[nH]c(/C=C2\C(=O)Nc3cc(NC(=O)c4cccn(-c5ccc(F)cc5)c4=O)ccc32)c1C [D123, (Z)-methyl-3-(5-((6-(1-(4-fluorophenyl)-2-oxo-1,2-dihydropyridine-3-carboxamido)-2-oxoindolin-3-ylidene)methyl)-2,4-dimethyl-1H-pyrrol-3-yl)propanoate] | 238 nM | 45.2 nM |  | 266 to 270 °C | 1.56 nM |
| O=C1Nc2cc(NC(=O)c3cccn(-c4cccc(C(F)(F)F)c4)c3=O)ccc2/C1=C/c1ccc[nH]1 [D113] | 689 nM | 134 nM |  | > 300 °C | 2.78 nM |
| O=C1Nc2cc(NC(=O)c3cccn(-c4cccc(Cl)c4)c3=O)ccc2/C1=C/c1ccc[nH]1 [D114] | 251 nM | 91.2 nM |  | > 300 °C | 1.55 nM |
| O=C(NC(=O)c1ccc(Cl)c(C(F)(F)F)c1)Nc1ccc2c(c1)NC(=O)/C2=C\c1ccc[nH]1 [D28, (Z)—N-(3-((1H-pyrrol-2-yl)methylene)-2-oxoindolin-6-ylcarbamoyl)-4-chloro-3-(trifluoromethyl)benzamide] | 15 nM | 385 nM |  | 280 to 285 °C (dec.) | 0.79 nM |
| Cc1[nH]c(/C=C2\C(=O)Nc3cc(NC(=O)c4c[nH]cc(-c5ccc(F)cc5)c4=O)ccc32)c(C)c1CC(=O)O [D144, (Z)-2-(5-((6-(5-(4-fluorophenyl)-4-oxo-1,4-dihydropyridine-3-carboxamido)-2-oxoindolin-3-ylidene)methyl)-2,4-dimethyl-1H-pyrrol-3-yl)acetic acid] | 2.3 nM | 1.3 nM |  | > 300 °C | 22.8 nM |
